Source: article PMC5519620 (Frontiers in Cellular Neuroscience, 2017)
“Also recorded” adds a separate entry of the source.

Assays:
mouse α9α10 nAChR = mouse α9α10 nAChR (Mus musculus, UniProt B2RX82+G3X8Z7); experiment: Agonist activation of mouse α9α10 nAChRs in Xenopus oocytes (two-electrode voltage clamp); assay type: biochemical; settings: for Hill slope for activation / EC50: 95% confidence interval in parentheses, ACh n = 5, choline n = 4; for agonist behaviour (words): oocyte two-electrode voltage clamp, nicotine 100 nM to 10 mM; for EC50: oocytes, holding potential −70 mV
Chain of mouse α9α10 nAChR (G3X8Z7 23-479): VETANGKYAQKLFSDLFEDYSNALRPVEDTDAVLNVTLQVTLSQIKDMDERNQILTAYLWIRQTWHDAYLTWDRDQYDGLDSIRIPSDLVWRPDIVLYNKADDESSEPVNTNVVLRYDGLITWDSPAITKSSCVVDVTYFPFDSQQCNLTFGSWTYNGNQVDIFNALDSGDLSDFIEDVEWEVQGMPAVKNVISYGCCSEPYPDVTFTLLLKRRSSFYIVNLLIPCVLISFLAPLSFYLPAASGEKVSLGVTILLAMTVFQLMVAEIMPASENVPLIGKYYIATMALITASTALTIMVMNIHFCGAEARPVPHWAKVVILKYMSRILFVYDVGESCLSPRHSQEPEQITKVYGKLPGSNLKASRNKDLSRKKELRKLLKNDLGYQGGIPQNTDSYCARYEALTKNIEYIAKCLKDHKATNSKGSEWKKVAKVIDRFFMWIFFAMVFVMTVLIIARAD
Chain of mouse α9α10 nAChR (B2RX82 25-447): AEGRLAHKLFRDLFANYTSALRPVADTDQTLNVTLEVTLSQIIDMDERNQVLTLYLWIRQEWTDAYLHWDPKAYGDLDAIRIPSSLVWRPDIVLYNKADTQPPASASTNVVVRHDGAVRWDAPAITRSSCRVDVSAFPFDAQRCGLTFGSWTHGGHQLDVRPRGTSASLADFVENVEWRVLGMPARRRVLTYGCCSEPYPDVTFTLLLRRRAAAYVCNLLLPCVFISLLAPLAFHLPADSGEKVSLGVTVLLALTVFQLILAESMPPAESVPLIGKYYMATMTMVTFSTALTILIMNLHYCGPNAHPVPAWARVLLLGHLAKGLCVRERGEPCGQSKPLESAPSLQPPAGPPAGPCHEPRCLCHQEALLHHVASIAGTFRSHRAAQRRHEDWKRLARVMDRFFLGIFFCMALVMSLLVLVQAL
Protocol: X. laevis oocytes were injected with 25 ng of each cRNA encoding α9 and α10 subunits as previously described (Cartier et al., [1996]) and incubated for 48 h at 17°C in ND96 prior to use. Two-electrode voltage clamp electrophysiology was conducted to assess for functional expression of α9α10 nAChRs as previously described (Azam et al., [2008]). The oocyte membranes were clamped at a holding potential of −70 mV and stimulated with 1 s pulses of 1 mM ACh once every 60 s. After a steady-state response baseline was observed, the oocytes were then stimulated with ascending concentrations of ACh, choline, or nicotine. Each oocyte was stimulated first with ACh followed by choline then nicotine. The maximal response value for activation by ACh was determined using the Hill equation: Y = Bottom + (Top-Bottom)/(1+10^∧((LogEC50−X)*Hill slope)). The responses to all concentrations of ACh, choline, and nicotine were then normalized to this value and calculated as a % response.

α9α10 nAChR = settings: MLA and α-bungarotoxin; no reference given; cited from earlier work
CBA/CaJ mice = settings: mouse, in vivo
α9* nAChRs of monocytes = settings: ref Hecker et al., 2015; Richter et al., 2016; Backhaus et al., 2017; cited from earlier work

With `C[N+](C)(C)CCO` [choline] as the molecule, how does the “Hill slope for activation” value (mouse α9α10 nAChR) read?
Its value is 1.3 (0.5–2.1).

What about the “agonist behaviour (words)” value (mouse α9α10 nAChR) of the same molecule?
The value was “activated”.

And the “agonist behaviour (words)” value (mouse α9α10 nAChR; listed as Choline)?
The value was “behaved as a partial agonist relative to ACh; also recorded: potently activated α9α10 nAChRs”.

And the EC50 (mouse α9α10 nAChR)?
Its EC50 is 601 µM.

For `CCN1C[C@]2(COC(=O)c3ccccc3N3C(=O)C[C@H](C)C3=O)CC[C@H](OC)[C@@]34[C@@H]5C[C@H]6[C@H](OC)[C@@H]5[C@](O)(C[C@@H]6OC)[C@@](O)([C@@H](OC)[C@H]23)[C@@H]14` [methyllycaconitine (MLA), methyllycaconitine], which “α9α10 nAChR block” value (α9α10 nAChR) is on record?
The value was “potently block α9α10 nAChRs”.

For `O=C1[O][Pt]2([NH][C@@H]3CCCC[C@H]3[NH]2)[O]C1=O` [oxaliplatin], which “Oxaliplatin-induced cold allodynia” value (CBA/CaJ mice) is on record?
The value was “produced cold allodynia, an effect that significantly differed from control beginning by week three and continuing for 2 weeks post-oxaliplatin treatment”.

For `CN1CCC[C@H]1c1cccnc1` [nicotine], which “evoked current (% response relative to ACh maximum)” value (mouse α9α10 nAChR; n = 4, nicotine) is on record?
Its value is 0.4 ± 0.2%.

And the “agonist behaviour (words)” value (mouse α9α10 nAChR)?
The value was “not by nicotine; also recorded: did not activate Xenopus oocyte-expressed mouse α9α10 nAChRs”.

What about the “agonist behaviour (words)” value (mouse α9α10 nAChR; listed as Nic) of the same molecule?
The value was “failed to evoke currents at concentration from 100 nM to 10 mM”.

And the “agonist behaviour (words)” value (mouse α9α10 nAChR; listed as Nicotine)?
The value was “failed to evoke currents in all oocytes tested”.

What about the “Agonist action on monocyte α9* nAChRs” value (α9* nAChRs of monocytes) of the same molecule?
The value was “act as an agonist of α9^* nAChRs in immune cell monocytes”.

What does the source list for `CC(=O)OCC[N+](C)(C)C` [ACh, acetylcholine]?
ACh-evoked current amplitude (mouse α9α10 nAChR; 1 mM ACh): > 10 μA; Hill slope for activation (mouse α9α10 nAChR): 1.1 (0.8–1.4); agonist behaviour (words) (mouse α9α10 nAChR): activated; also recorded: induced robust currents; EC50 (mouse α9α10 nAChR): 30.1 µM
